Tested on: hiPSC derived odontoblast cells (iOB)
Assay: qPCR of odontoblast markers (Example 2)
Type: cell-based, human
Details: iOB bFGF (100 ng/mL, 14 days) compared to conventional odontoblast differentiation method (OB)
Method: This project applies the DPSC derived to odontoblast protocol previously described by the lab (30), modified for hiPSC and to reflect the full signaling pathway activities as detected by the sci-RNA-seq analysis (FIG. 11A; FIGS. 15B and 15C). […] Odontogenic medium was supplemented with 50 ng/mL BMP4 (Stemcell Technologies 78211) for 7 days followed by 25 ng/mL BMP4 (Stemcell Technologies 78211) and 400 nM SAG (Stemcell Technologies 73412) for 7 days (iOB); 100 ng/mL C6 (1,2) for 14 days (iOB C6); 100 ng/mL C6 for 7 days followed by 100 ng/mL mb7 (31,32) for 7 days (iOB C6 to mb7); or 100 ng/mL recombinant basic FGF (Gibco 13256-029) for 14 days (iOB bFGF). […]
To analyze gene expression, cells were dissociated and lysed with Trizol (Life Technology) with cell pellets stored at −80° C. RNA purification is performed via TURBO DNA-Free™ Kit (Invitrogen) or Aurum™ Total RNA Mini Kit (Bio-Rad), purity and concentration quantification via Nanodrop ND-1000 (Thermo Fisher Scientific). cDNA synthesis via iScript™ cDNA Synthesis Kit (Bio-Rad) or Applied Biosystems™ High-Capacity cDNA Reverse Transcription Kit (Thermo Fisher Scientific), and qPCR performed using oligonucleotide primers for neural crest and odontoblast markers (Table 3), SYBR Green reporter (Applied Biosystems) and 7300 Real-Time PCR System (Applied Biosystems). […]

**Q.** How did the “DSPP and DMP1 expression” value turn out when “bFGF: recombinant basic FGF (Gibco 13256-029)” was run?
**A.** Its value is “increased DSPP and DMP1 expression”.

Source: patent publication US20260117184A1, “SYSTEM AND METHOD TO DIRECT THE DIFFERENTIATION OF PLURIPOTENT STEM CELL-DERIVED ODONTOBLASTS” (UNIVERSITY OF WASHINGTON, priority 2022, published 2026)
